We go through four molecules from article PMC11362529, “Exploring the neuroprotective potential of Nrf2-pathway activators against annonacin toxicity” (Scientific Reports, 2024).

Format in all cases: cell-based, human
Assay [1] deals with LUHMES cells. The assay can be described thus: Mitochondrial superoxide (MitoSOX / calcein AM). Particulars: 48 h. On the procedure:
As before, cells seeded on PLO/FN-coated 24-well microplates were treated for 48 h with 20 nM of annonacin and the selected concentrations of Nrf2-pathway activators, in glucose-reduced medium. After this period, the medium was removed, and the cells were washed once with warm HBSS before being simultaneously incubated with 0.5 µM of MitoSOX™ red (Thermo Fisher Scientific) and 1 µM of calcein AM for 30 min at 37 °C. Next, the cells were again washed with HBSS and fresh HBSS was added to maintain cell viability during live-image acquisition on a fluorescence microscope Leica-DFC9000GTC (Leica). The cells were kept under controlled environmental conditions, and similar image acquisition parameters were used for all images, as explained before. We acquired ten to fifteen images per condition, from different view fields across triplicates, with a 200 × magnification (20 × objective, 10 × intermediate magnification). Quantification of MitoSOX and calcein AM FI was performed using the ImageJ software. Briefly, TIFF exported images were submitted to background subtraction using the rolling ball method with a radius of 50 pixels. Channel-specific thresholds were applied to all images to define the ROI, and the FI were measured as integrated density and reported as arbitrary units (a. u.). The MitoSOX FI was normalized to cell viability estimated by calcein AM FI, to obtain a MitoSOX FI/calcein FI ratio. The average ratio of the different view fields per experimental condition was taken and reported as fold change relative to the control (DMSO-treated) condition.

A further assay concerns 8-OHdG. Put plainly: Oxidative DNA damage marker 8-OHdG immunofluorescence. As to conditions: 48 h; for 8-OHdG reactivity: protective concentration of compound + 20 nM annonacin. Here is the method:
For immunostaining, cells were seeded in differentiation medium, on 24-well microplates containing PLO/FN-coated 13 mm Ø coverslips, and treated for 48 h as previously described. On the readout day, the medium was removed and cells were fixed, permeabilized and blocked as before. Primary antibody dilutions were made in 1.5% NHS in PBS (Supplementary Table S1) and incubated overnight at 4 °C. On the following day, the coverslips were washed three times with PBS and incubated with host-specific fluorescence secondary antibodies (Supplementary Table S1), for 2 h at RT, protected from light. After another three washes with PBS, cell nuclei were stained with 1:5,000 DAPI (4’,6-diamidino-2-phenylindole, Thermo Fisher Scientific) in PBS, for 15 min at RT. The coverslips were mounted in mowiol and left to dry for 24 h before imaging. Image acquisition for FI quantification was done with a 200 × magnification (20 × objective, 10 × intermediate magnification), or 400x (40 × objective, 10 × intermediate magnification) in the case of pSC-35 and AT8 immunostaining, on a fluorescence microscope Leica-DFC9000GTC (Leica). In the case of phospho-tau AT8, Z-stacks consisting of 18 plane images with a step size of 1 μm were acquired. The image acquisition parameters were identical for all conditions. Quantification of 8-OHdG (8-hydroxyguanosine) FI and tau species was performed using the ImageJ software. Ten-to-fifteen images per condition across triplicates, from different view fields, were used for this purpose. Briefly, TIFF exported images were submitted to background subtraction using the rolling ball method with a radius of 50 pixels. For 8-OHdG analysis, a channel-specific threshold was applied to all images to define the ROI and FI was measured and normalized to the cell number, determined by the DAPI channel. The average value of the different view fields per experimental condition was taken and reported as fold change compared to the control (DMSO-treated) condition. For the analysis of phospho-tau AT270 and pan-tau reactivity, channel specific thresholds were applied to all images. The DAPI channel was used to define nuclei from viable cells, by selecting particles with a size above 15 µm^2 and a circularity of 0.3–1.0. […] These masks were used to quantify the number of somas expressing each of these tau species, as well as the respective FI. The number of AT270-positive somas was divided by the number of pan-tau-positive somas and expressed as a percentage. […] For quantification of pSC-35 and AT8 speckle number and FI, we used CellProfiler™ 4 (https://cellprofiler.org/, Broad Institute Inc., Cambridge, MA, USA) speckle counting pipeline. […]

In assay [2] the test system is LUHMES cells. The assay can be described thus: Intracellular ATP levels (ViaLight plus kit). As to conditions: for intracellular ATP levels: protective concentration of compound + 20 nM annonacin, 24 h. Here is the method:
Mitochondrial activity was estimated by the reduction of MTT (3-(4,5-dimethylthiazol-2-yl)-2,5-diphenyltetrazolium, Sigma-Aldrich). Briefly, LUHMES cells were seeded on PLO/FN-coated 48-well microplates, in triplicates. After a 24 h treatment with 20 nM of annonacin and the protective concentrations of Nrf2-pathway activators in glucose-reduced medium, cells were incubated with 0.5 mg/ml of MTT dissolved in PBS, at 37 °C for 30 min. After that, the medium was removed and the plate was frozen at -80 °C for 1 h, for cell lysing. Next, the plate was thawed and the MTT crystals were completely dissolved in 250 µl of DMSO with vigorous shaking. The absorbance was measured on a FLUOstar® Omega plate reader at λ = 590 nm, using λ = 630 nm absorbance as a background correction. The obtained results were analyzed with the MARS data analysis software (BMG LabTech). After background subtraction, the data were expressed as a percentage of MTT reduction relative to the control (DMSO-treated) condition. Determination of cellular ATP levels was done by using the ViaLight™ plus kit (Lonza, Basel, Switzerland), following the manufacturer’s instructions. Cells were seeded on PLO/FN-coated 48-well microplates and the pharmacological treatments were done similarly as to the assessment of the MTT reduction. On the next day, the medium was removed and cells were washed once with warm HBSS and rested in 210 µl HBSS. The plate was left to reach RT before adding 70 µl cell lysis reagent to each well, provided by the kit. After a 10 min incubation, 10 µl of each lysed cell extract was transferred to a 384-well white plate and combined with 10 µl of ATP monitoring reagent plus. The plate was incubated in the dark for 10 min at RT before the luminescence signal was measured on a FLUOstar® Omega plate reader. The obtained results were analyzed with the MARS data analysis software (BMG LabTech) and expressed as RLUs. For background correction, the RLUs detected for the background control (i.e., 10 µl of ATP monitoring reagent plus combined with 10 µl of cell lysis reagent) were subtracted from the measured RLUs values of all testing conditions.

The mark [3] stands for this setting: protective concentration of compound + 20 nM annonacin.

Turning to `Cn1c(Nc2nc3ccc(C(F)(F)F)cc3s2)nc2cc(C(=O)NCCOCCO)ccc21` [HPP-D], the MitoSOX/calcein ratio entry in the assay with LUHMES cells [1] (setting [3]) is reported as “to control levels”. The 8-OHdG reactivity entry in the assay with 8-OHdG is “small but significant reduction of 8-OHdG reactivity”. Besides, the “intracellular ATP levels” value in the assay with LUHMES cells [2] was “intracellular ATP levels no longer statistically different from healthy control cells”.

Consider `CCCCCCCCCCCC[C@@H](O)[C@H]1CC[C@H]([C@H](O)CCCC[C@H](O)CCCCC[C@@H](O)CC2=CC(C)OC2=O)O1` (stereo partly shown) [annonacin], for which, in the assay on LUHMES cells [1] (20 nM annonacin alone), the MitoSOX fluorescence intensity result was “no major changes in MitoSOX fluorescence intensity” and the MitoSOX/calcein ratio result is reported as “significantly increased”. In addition, in the assay with 8-OHdG (20 nM annonacin alone), the “increase of 8-OHdG reactivity” value was 1.5 fold over control. Further, in the assay on LUHMES cells [2] (annonacin alone), the ATP production entry is reported as “impaired ATP production”.

As to `O=C1[C@H](CC[C@H](O)c2ccc(F)cc2)[C@@H](c2ccc(O)cc2)N1c1ccc(F)cc1` [ezetimibe], the MitoSOX/calcein ratio result in the assay with LUHMES cells [1] (setting [3]) is listed as “to control levels”. Also, the 8-OHdG reactivity entry in the assay with 8-OHdG was “levels of oxidative DNA damage comparable to healthy control cells”. Further, in the assay on LUHMES cells [2], the “intracellular ATP levels” value is on record as “lower intracellular ATP levels”.

With `C=CC(C)(C)c1cc(/C=C/C(=O)c2ccc(O)cc2)c(OC)cc1O` [licochalcone A], the MitoSOX/calcein ratio entry in the assay with LUHMES cells [1] (setting [3]) is “to levels below control”. Also, the 8-OHdG reactivity entry with 8-OHdG is reported as “levels of oxidative DNA damage comparable to healthy control cells”. Moreover, the “intracellular ATP levels” value with LUHMES cells [2] is on record as “lower intracellular ATP levels”.
